# From US20050124618A1, “Methods of modulating angiogenesis and cancer cell proliferation” (priority 2003, published 2005)
# “Also recorded” adds a separate entry of the source.
# Assays:
# [1] = test system: 20-HETE; conditions: cited from earlier work
# [2] = test system: 9L rat gliosarcoma cells; assay: 9L cell proliferation assay (cell counting); type: cell-based
# Description: (§1) Culture Conditions: 9L rat gliosarcoma cells were purchased from ATC (Gaithersburg, Md.) and were maintained in DMEM (Invitrogen) supplemented with 10% heat-inactivated fetal bovine serum (FBS), penicillin (10 IU/ml), streptomycin (10 μg/ml) and 10% non-essential amino acids (all purchased from Invitrogen). Cells were maintained at 37° C. in a humidified incubator containing 5% CO2. They were grown in medium containing 10% FBS, which was then replaced with serum-free medium (give type and source) where 9L cells grow exponentially.
# Cell Proliferation Assays: Proliferation studies were performed with cultures plated at a density that ensured exponential growth for at least 5 days. Growth medium were generally replaced by serum free medium 24 hr after plating. […] The concentration of the ethanol added to the media never exceeded 0.1%. Cells were harvested by exposure to a solution of 0.05% Trypsin/EDTA and counted using a hemocytometer.
# [3] = test system: rat cornea; assay: Rat cornea pocket angiogenesis assay (growth factor pellets); type: in vivo; conditions: for angiogenic response to growth factor alone: 250 ng growth factor per pellet
# Description: (i) Preparation of sustained-release polymer: Sustained-release polymer pellets were prepared by making a 1:1 mix of a 12% solution in ethanol of the polymer (Hydron polyhydroxyethylmethacrylate), with saline containing the growth factors. The growth factors bFGF, VEGF, and EGF were dissolved at a concentration of 125 ng/μl. […] 2 μl of these solutions were added to each pellet. Thus, a pellet containing 250 ng of a single growth factor was implanted at random in the right or left eye. The other eye was implanted with a pellet containing the same dose of growth factor+HET0016. In some rats the pellet contained VEGF alone and VEGF+DDMS. 20 μg of the stable 20-HETE agonist analog WIT003 was implanted in one eye to determine whether it induces angiogenesis. […] 9 μl of the 1:1 Hydron/treatment mixture was placed on the ends of 1.5-cm rods. Each pellet contained 250 ng of its respective growth factor. For bFGF we used sucralfate to stabilize and allow sustained release of this growth factor (Volkin D B et al., Biochim Biophys Acta 1993, 1203:18-26). After drying the pellets for 1 hour, they were ready to be implanted into the cornea of rats.
# (ii) Pellet implantation: The rats were anesthetized IM with ketamine (80 mg/kg) and xylazine (10 mg/kg). The eyes were topically anesthetized with 0.5% proparacaine (Ophthetic, Alcon, Tex.) and the globes proptosed with a jeweler's forceps. Using an operating microscope, a central intrastromal linear keratotomy, approximately 1.5 mm in length, was performed with a surgical blade (Bard-Parker #11; Becton Dickinson, Franklin Lake, N.Y.) parallel to the insertion of the lateral rectus muscle. A curved iris spatula (No. 10093-13, Fine Science Tools, Belmont, Calif.) approximately 1.5 mm wide and 5 mm long was inserted under the lip of the incision and gently pushed through the stroma toward the temporal limbus of the eye. The distance between the limbus and the base of the pocket was kept at 1.0±0.1 mm. The pellet was advanced to the temporal end of the pocket. Antibiotic ointment (erythromycin) was applied to the anterior surface of the eye.
# (iv) Quantitation of corneal neovascularization: Seven days after pellet implantation, the rats were deeply anesthetized as previously described with ketamine and xylazine. The left ventricle was cannulated and the animal was perfused with 20-25 ml saline through the left ventricle followed by 20-25 ml India ink (waterproof drawing ink, Sanford, Bellwood, Ill.). The eyes were marked for orientation, enucleated and placed in 4% formalin for 24 hours. The cornea was dissected free from the surrounding globe and underlying iris, bisected, and loosely mounted between two glass slides, thus gently flattening the cornea. These flat mounts were examined microscopically using a Nikon Diaphot Epi-fluor 2 microscope attached to a CCD video camera and the images were digitized and saved using a computer.
# Neovascularization was determined by comparing total vessel length in the control and experimental eyes. Vessel length was determined by tracing each vessel from the limbus to the pellet. Total length is the sum of these values in pixels and was determined using conventional image analysis software (Sigma Scan Pro, SPSS, Chicago, Ill.)
# [4] = test system: HUVECs; assay: HUVECs proliferation assay (CellTiter96 AQueous One); type: cell-based, human
# Description: HUVECs were seeded onto a 96-well plate at 1×10^4 cells/well. […] Organic solvent concentration never exceeded 0.1% of total culture volume. […] 20 μl of Aqueous One reagent was added to the 100 μl medium in each well. The plates were incubated for 2 hours at 37° C. in a humidified incubator. Absorbance was recorded at 490 nm using a 96-well Bio Kinetics Reader EL340 (Bio-TEK, Winooski, Vt.). The data represent changes in percent absorbance of treated cultures compared with control cells. Three different experiments were carried out, and each point was determined in triplicate.
# [5] = test system: U251 human glioma cells; assay: U251 cell proliferation assay (cell counting); type: cell-based; conditions: for increase of U251 cell proliferation: 1 μM agonist, 48 hr, serum-starved
# Description: as §1, with “Cells” for “9L rat gliosarcoma cells”, “routinely” for “purchased from ATC (Gaithersburg, Md.) and were”, “medium” for “medium (give type and source)”, “U251” for “9L”, “exponentially. Treatments were initiated one day after serum removal.” for “exponentially.”
# Cell Proliferation Assays: Proliferation studies were performed with cultures plated at a density that ensured exponential growth for at least 5 days. Growth medium was generally replaced by serum-free medium 24 hr after plating. Cells were treated with various concentrations of a given compounds for 24 or 48 hr as described in the Methods. […] Organic solvent never exceeded 0.1% of total culture volume. Cells were harvested by exposure to 0.05% trypsin/EDTA and counted using a hemocytometer.
# [6] = up to 40 μg palmitic acid per pellet
compound,measurement,setting,value
"C#CCCCCCCCCCCCCCCCC(=O)O [17-ODYA, 17-Octadecynoic acid]",ability to reduce 20-HETE levels in vivo,[1],reduce 20-HETE levels in vivo
"EGF: epidermal growth factor, positive control for proliferation",increase of proliferation of 9L cells,[2]; EGF 200 ng/ml,about 30%
same,effect on number of 9L cells,"[2]; EGF 200 ng/ml, 24 and 48 hrs",increased the number of cells
same,angiogenic response to growth factor alone,[3],Vigorous angiogenic responses
"bFGF: basic fibroblast growth factor, purchased from R&D Systems",angiogenic response to growth factor alone,[3],Vigorous angiogenic responses
CCCCCCCCCCCCCCCC(=O)O [palmitic acid],angiogenic effect of fatty acid control alone,[3]; [6],had no effect by itself
same,influence of fatty acid control on angiogenic responses to VEGF,[3]; [6],no difference in angiogenic responses to VEGF
same,influence of fatty acid control on angiogenic responses to VEGF,"[3]; up to 40 μg palmitic acid per pellet, listed as Palmitic acid",showed no ability to influence angiogenic responses to VEGF
"O=C(O)CCCC/C=C\CCCCCCC/C=C\CCCCO [WIT003, 20-hydroxyeicosa-6(Z),15(Z)-dienoic acid]",stimulation of 9L proliferation compared with EGF,[2]; 1 μM WIT003,A similar degree of stimulation
same,rescue of 9L cells from the inhibitory actions of HET0016,[2]; 1 μM WIT003 + 10 μM HET0016,partially rescued
same,angiogenic response to the 20-HETE analog alone,"[3]; 20 μg WIT003 per pellet, 7 days",induced an angiogenic response
same,effect on proliferation of HUVECs,"[4]; 1 μM WIT003, 48 hours",increased the proliferation rate; also recorded: increased proliferation of the cells
same,stimulatory effect on proliferation of U251 cells,"[5]; 0.1 μM WIT003, 48 hr",has no more stimulatory effect on proliferation of U251 cells than 50 ng/ml EGF
same,rescue of U251 cells from the anti-proliferative effects of HET0016,"[5]; 1 μM WIT003 + 10 μM HET0016, 48 h",reverses the effects of HET0016; also recorded: can rescue
same,"U251 proliferation with WIT003 and HET0016, increase above HET0016 alone","[5]; 1 μM WIT003 + 10 μM HET0016, 2 days",about 70%
same,U251 growth stimulation compared with EGF,"[5]; 1 μM WIT003, 48 h",comparable to the growth stimulating effect induced by 200 ng/ml EGF; also recorded: as much as 200 ng/ml EGF
same,increase of U251 cell proliferation,[5],20%
VEGF,angiogenic response to growth factor alone,[3],marked neovascularization response; also recorded: Vigorous angiogenic responses
same,effect on proliferation of HUVECs,[4]; 250 ng/ml VEGF alone,stimulated proliferation
"O=C(O)CCC/C=C\CCCCCCC/C=C\CCCCCO [20-hydroxyeicosa-5(Z),14(Z)-dienoic acid]",reversal of HET0016 blockade of U251 cell proliferation,[5]; 1 μM 20-HETE agonist + HET0016,about 70%
same,increase of U251 cell proliferation,[5],about 20%
